Here are results for 21 compounds from PubChem BioAssay AID192 (DTP/NCI, 2004).

“And” between values parts separate entries of the source, which are not always exact repeats. Identical values can stand only once. Toxic doses and inconclusive results are not listed.

In this experiment the test system is BDF1 mice, B16 melanoma ip, median survival T/C. As to the kind of experiment: NCI In Vivo Anticancer Drug Screen. Data for tumor model B16 Melanoma (intraperitoneal) in B6D2F1 (BDF1) mice. The note with it: endpoint: median survival time, higher = longer survival. Summed up:
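In this screen, activity was judged from survival or tumor size in treated versus vehicle-treated tumor-bearing mice, reported as T/C.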

The mark [1] stands for this setting: dose: 50.0 mg/kg/injection, schedule: Q01DX009 (ip), vehicle: saline with Tween-80.
The mark [2] stands for this setting: dose: 100.0 mg/kg/injection, schedule: Q01DX009 (ip), vehicle: saline with Tween-80.
Setting [3] is: dose: 25.0 mg/kg/injection, schedule: Q01DX009 (ip), vehicle: Klucel (hydroxypropylcellulose) (HPC).
[4] abbreviates: dose: 50.0 mg/kg/injection, schedule: Q01DX009 (ip), vehicle: Klucel (hydroxypropylcellulose) (HPC).
Where [5] appears, read: dose: 100.0 mg/kg/injection, schedule: Q01DX009 (ip), vehicle: Klucel (hydroxypropylcellulose) (HPC).
Setting [6] is: dose: 1.5 mg/kg/injection, schedule: Q01DX009 (ip), vehicle: saline.
The mark [7] stands for this setting: dose: 3.0 mg/kg/injection, schedule: Q01DX009 (ip), vehicle: saline.
The mark [8] stands for this setting: dose: 200.0 mg/kg/injection, schedule: Q01DX009 (ip), vehicle: Klucel (hydroxypropylcellulose) (HPC).
[9] abbreviates: dose: 400.0 mg/kg/injection, schedule: Q01DX009 (ip), vehicle: Klucel (hydroxypropylcellulose) (HPC).
The mark [10] stands for this setting: dose: 200.0 mg/kg/injection, schedule: Q01DX009 (ip), vehicle: saline with Tween-80.
The mark [11] stands for this setting: dose: 6.25 mg/kg/injection, schedule: Q01DX009 (ip), vehicle: saline with Tween-80.
[12] abbreviates: dose: 12.5 mg/kg/injection, schedule: Q01DX009 (ip), vehicle: saline with Tween-80.
Where [13] appears, read: dose: 25.0 mg/kg/injection, schedule: Q01DX009 (ip), vehicle: saline with Tween-80.
The mark [14] stands for this setting: dose: 25.0 mg/kg/injection, schedule: Q04DX003 (ip), vehicle: saline with Tween-80.

As for `C[C@@]12C(=O)OC(=O)[C@]1(C)[C@H]1CC[C@@H]2O1`, the T/C is 89 % of control (dose: 0.06 mg/kg/injection, schedule: Q01DX009 (ip), vehicle: Klucel (hydroxypropylcellulose) (HPC)); 93 % of control (dose: 0.12 mg/kg/injection, schedule: Q01DX009 (ip), vehicle: Klucel (hydroxypropylcellulose) (HPC)); 103 % of control (dose: 0.13 mg/kg/injection, schedule: Q01DX009 (ip), vehicle: acetone); 90 % of control (dose: 0.25 mg/kg/injection, schedule: Q01DX009 (ip), vehicle: Klucel (hydroxypropylcellulose) (HPC)); 101 % of control (dose: 0.25 mg/kg/injection, schedule: Q01DX009 (ip), vehicle: acetone); 102 % of control (dose: 0.5 mg/kg/injection, schedule: Q01DX009 (ip), vehicle: Klucel (hydroxypropylcellulose) (HPC)). Moreover, the T/C was 110 % of control (dose: 0.5 mg/kg/injection, schedule: Q01DX009 (ip), vehicle: acetone) and 96 % of control (dose: 1.0 mg/kg/injection, schedule: Q01DX009 (ip), vehicle: Klucel (hydroxypropylcellulose) (HPC)).
For `CC(C)c1ccc(C(O)C2CC2)cc1` (stereo not drawn), the T/C by setting is: under setting [1], 110 % of control; under setting [2], 102 % of control.
Consider `Oc1ccc(Br)cc1-c1nc2cc(Cl)c(Cl)cc2nc1-c1cc(Br)ccc1O`, for which the T/C is 87 % of control under setting [3]; 86 % of control under setting [4]; 91 % of control and 94 % of control under setting [5].
Consider `CC1=CC(=O)[C@@H](O)[C@]2(C)[C@H]3[C@@]4(O)OC[C@]35[C@H]([C@@H](C)[C@H]4O)[C@@H](OC(=O)c3ccccc3)C(=O)O[C@@H]5C[C@@H]12`, for which the T/C was 118 % of control (dose: 0.25 mg/kg/injection, schedule: Q01DX009 (ip), vehicle: saline with Tween-80) and 171 % of control (dose: 2.0 mg/kg/injection, schedule: Q01DX009 (ip), vehicle: saline with Tween-80).
With `O=C1C(=O)C(Cl)=C(Cl)C(Cl)=C1Cl`, the T/C (dose: 0.75 mg/kg/injection, schedule: Q01DX009 (ip), vehicle: saline) was 106 % of control; the T/C under setting [6] was 93 % of control; the T/C under setting [7] is 93 % of control.
For the compound `S=C1SCN(Cc2ccccc2)CN1Cc1ccccc1`, the T/C reads like this: under setting [3], 102 % of control and 120 % of control; under setting [4], 102 % of control and 108 % of control; under setting [5], 90 % of control and 97 % of control and 105 % of control.
In the case of `NCOC(=O)Cc1ccc(Br)cc1`, the T/C under setting [5] was 97 % of control, the T/C under setting [8] is 97 % of control and the T/C under setting [9] is 89 % of control.
Take `CN(C)CCOc1ccccn1`: the T/C under setting [2] is 94 % of control and the T/C under setting [10] was 97 % of control.
Take `C/C=C1\C[C@@H]2C(OC)Nc3cc(O)c(OC)cc3C(=O)N2C1` (stereo partly drawn): the T/C (dose: 0.03 mg/kg/injection, schedule: Q01DX009 (ip), vehicle: saline) is 100 % of control; the T/C (dose: 0.06 mg/kg/injection, schedule: Q01DX009 (ip), vehicle: saline) is 112 % of control; the T/C (dose: 0.12 mg/kg/injection, schedule: Q01DX009 (ip), vehicle: saline) was 115 % of control; the T/C (dose: 0.12 mg/kg/injection, schedule: Q01DX009 (ip), vehicle: suspension in saline) is 105 % of control; the T/C (dose: 0.25 mg/kg/injection, schedule: Q01DX009 (ip), vehicle: saline) was 112 % of control; the T/C (dose: 0.25 mg/kg/injection, schedule: Q01DX009 (ip), vehicle: suspension in saline) was 96 % of control. Further, the T/C (dose: 0.5 mg/kg/injection, schedule: Q01DX009 (ip), vehicle: saline) is 115 % of control and the T/C (dose: 0.5 mg/kg/injection, schedule: Q01DX009 (ip), vehicle: suspension in saline) was 96 % of control.
For the compound `[Cl][Hg][CH]1CCC2OC1CC[CH]2[Hg][Cl]` (stereo not drawn), under setting [11], the T/C was 104 % of control.
For `COc1cc2cc[n+](C)cc2cc1OC`, the T/C by setting is: (dose: 6.25 mg/kg/injection, schedule: Q01DX009 (ip), vehicle: water) 95 % of control; (dose: 12.5 mg/kg/injection, schedule: Q01DX009 (ip), vehicle: water) 95 % of control; (dose: 25.0 mg/kg/injection, schedule: Q01DX009 (ip), vehicle: water) 97 % of control; (dose: 50.0 mg/kg/injection, schedule: Q01DX009 (ip), vehicle: water) 92 % of control.
With `Cc1ccc(N=C(c2ccc([N+](=O)[O-])cc2)c2ccc([N+](=O)[O-])cc2)cc1`, the T/C by setting is: under setting [5], 111 % of control; under setting [8], 97 % of control; under setting [9], 91 % of control.
`CC(=O)OC1COC(NC(=O)N(CCCl)N=O)C(OC(C)=O)C1OC(C)=O` (stereo not drawn): the T/C was 106 % of control (dose: 0.18 mg/kg/injection, schedule: Q01DX009 (ip), vehicle: saline with Tween-80); 155 % of control (dose: 0.2 mg/kg/injection, schedule: Q01DX009 (ip), vehicle: saline with Tween-80); 118 % of control (dose: 0.37 mg/kg/injection, schedule: Q01DX009 (ip), vehicle: saline with Tween-80); 114 % of control (dose: 0.39 mg/kg/injection, schedule: Q01DX009 (ip), vehicle: saline with Tween-80); 168 % of control (dose: 1.5 mg/kg/injection, schedule: Q01DX009 (ip), vehicle: saline with Tween-80); 170 % of control (dose: 1.56 mg/kg/injection, schedule: Q01DX009 (ip), vehicle: saline with Tween-80). The T/C runs as follows: (dose: 3.0 mg/kg/injection, schedule: Q01DX009 (ip), vehicle: saline with Tween-80) 173 % of control; (dose: 3.12 mg/kg/injection, schedule: Q01DX009 (ip), vehicle: saline with Tween-80) 209 % of control; (dose: 6.0 mg/kg/injection, schedule: Q01DX009 (ip), vehicle: saline with Tween-80) 162 % of control; under setting [11], 190 % of control.
In the case of `COc1ccc(NC(=O)Oc2ccccc2-c2ccccc2)cc1`, the T/C reads like this: (dose: 8.0 mg/kg/injection, schedule: Q01DX009 (ip), vehicle: saline with Tween-80) 100 % of control; (dose: 12.0 mg/kg/injection, schedule: Q01DX009 (ip), vehicle: saline with Tween-80) 95 % of control; under setting [12], 223 % of control; (dose: 18.0 mg/kg/injection, schedule: Q01DX009 (ip), vehicle: saline with Tween-80) 95 % of control; under setting [13], 199 % of control; under setting [1], 213 % of control.
Consider `CC1=C2CC3CCC(C)C2(CC1)C3(C)C` (stereo not drawn), for which the T/C is, setting by setting: under setting [14], 105 % of control; (dose: 50.0 mg/kg/injection, schedule: Q04DX003 (ip), vehicle: saline with Tween-80) 100 % of control; (dose: 100.0 mg/kg/injection, schedule: Q04DX003 (ip), vehicle: saline with Tween-80) 91 % of control.
Turning to `O=S(=O)(O)c1ccc(-c2c3nc(c(-c4ccc(S(=O)(=O)O)cc4)c4ccc([nH]4)c(-c4ccc(S(=O)(=O)O)cc4)c4nc(c(-c5ccc(S(=O)(=O)O)cc5)c5ccc2[nH]5)C=C4)C=C3)cc1`, the T/C is 104 % of control (dose: 6.25 mg/kg/injection, schedule: Q01DX009 (ip), vehicle: saline); 105 % of control (dose: 12.5 mg/kg/injection, schedule: Q01DX009 (ip), vehicle: saline); 117 % of control (dose: 25.0 mg/kg/injection, schedule: Q01DX009 (ip), vehicle: saline); 110 % of control (dose: 50.0 mg/kg/injection, schedule: Q01DX009 (ip), vehicle: saline).
Turning to `Cc1ccc(NC(=O)Nc2ccc(C)c(NC(=O)Nc3ccc(C)c(Cl)c3)c2)cc1Cl`, the T/C by setting is: under setting [11], 99 % of control; under setting [12], 90 % of control; under setting [13], 99 % of control.
For `C[CH2][Pb]([CH2]C)([CH2]C)[O][As](=O)(O)c1ccc(N)cc1`, the T/C runs as follows: under setting [6], 98 % of control; under setting [7], 96 % of control.
On to `CSc1ncc(C#N)c(N)n1`, for which the T/C is 107 % of control under setting [1], 99 % of control under setting [2] and 97 % of control under setting [10].
In the case of `c1ccc(CSC2=NCCS2)cc1`, the T/C was 102 % of control under setting [2]; 105 % of control under setting [10]; 97 % of control (dose: 400.0 mg/kg/injection, schedule: Q01DX009 (ip), vehicle: saline with Tween-80).
As for `CN(C)CCCN=Cc1ccccc1O.CN(C)CCCN=Cc1ccccc1O.[Ni+2]`, the T/C was 92 % of control (dose: 6.25 mg/kg/injection, schedule: Q04DX003 (ip), vehicle: saline with Tween-80) and 86 % of control under setting [14].
